Results published in ChEMBL document CHEMBL3045594, “Synthesis and evaluation of substituted 5-(3-chloro-2-oxo-4-phenylazetidin-1-ylamino)pyrimidine-2,4,6(1H,3H,5H)-triones against pentylenetetrazole-induced convulsant in mice” (Med Chem Res, 2012).

Assays:
[1] = test system: Mus musculus; experiment: Anticonvulsant activity in Mus musculus (mouse) subcutaneous PTZ-induced seizure assessed as reduced glutathione level per mg of protein at 40 mg/kg, ip administered 30 min before PTZ challenge by Ellman method; assay type: functional
[2] = test system: Mus musculus; experiment: Anticonvulsant activity in Mus musculus (mouse) subcutaneous PTZ-induced seizure assessed as carbonyl protein level at 40 mg/kg, ip administered 30 min before PTZ challenge; assay type: functional
[3] = test system: Mus musculus; experiment: Anticonvulsant activity in Mus musculus (mouse) subcutaneous PTZ-induced seizure assessed as reduced nitrite level per mg of protein at 40 mg/kg, ip administered 30 min before PTZ challenge by Griess reaction; assay type: functional
[4] = test system: Mus musculus; experiment: Anticonvulsant activity in Mus musculus (mouse) subcutaneous PTZ-induced seizure assessed as carbonyl protein level at 20 mg/kg, ip administered 30 min before PTZ challenge; assay type: functional
[5] = test system: Mus musculus; experiment: Anticonvulsant activity in Mus musculus (mouse) subcutaneous PTZ-induced seizure assessed as malondialdehyde level at 40 mg/kg, ip administered 30 min before PTZ challenge by TBARS assay; assay type: functional
[6] = test system: Mus musculus; experiment: Acute toxicity in Mus musculus (mouse) at 100 to 200 mg/kg, ip; assay type: organism-based; design: dose 100-200 mg/kg, route intraperitoneal; details: in vivo
[7] = Acute toxicity in Mus musculus (mouse) assessed as mortality at 1000 mg/kg, ip; assay type: organism-based; design: dose 1000 mg/kg, route intraperitoneal; details: in vivo, read-out: Activity
[8] = test system: Mus musculus; experiment: Anticonvulsant activity in Mus musculus (mouse) assessed as protection against subcutaneous PTZ-induced seizure at 20 mg/kg, ip administered 30 min before PTZ challenge; assay type: functional
[9] = test system: Mus musculus; experiment: Anticonvulsant activity in Mus musculus (mouse) assessed as protection against subcutaneous PTZ-induced seizure at 40 mg/kg, ip administered 30 min before PTZ challenge; assay type: functional
[10] = test system: Mus musculus; experiment: Anticonvulsant activity in Mus musculus (mouse) subcutaneous PTZ-induced seizure assessed as reduced nitrite level per mg of protein at 20 mg/kg, ip administered 30 min before PTZ challenge by Griess reaction; assay type: functional
[11] = test system: Mus musculus; experiment: Acute toxicity in Mus musculus (mouse) assessed as behavioral changes at 1000 mg/kg, ip; assay type: organism-based; design: dose 1000 mg/kg, route intraperitoneal; details: in vivo
[12] = test system: Mus musculus; experiment: Anticonvulsant activity in Mus musculus (mouse) subcutaneous PTZ-induced seizure assessed as malondialdehyde level at 20 mg/kg, ip administered 30 min before PTZ challenge by TBARS assay; assay type: functional
[13] = test system: Mus musculus; experiment: Anticonvulsant activity in Mus musculus (mouse) subcutaneous PTZ-induced seizure assessed as reduced glutathione level per mg of protein at 20 mg/kg, ip administered 30 min before PTZ challenge by Ellman method; assay type: functional
[14] = test system: Mus musculus; experiment: Anticonvulsant activity in Mus musculus (mouse) subcutaneous PTZ-induced seizure assessed as reduced glutathione level per mg of protein at 80 mg/kg, ip administered 30 min before PTZ challenge by Ellman method; assay type: functional
[15] = test system: Mus musculus; experiment: Anticonvulsant activity in Mus musculus (mouse) subcutaneous PTZ-induced seizure assessed as malondialdehyde level at 80 mg/kg, ip administered 30 min before PTZ challenge by TBARS assay; assay type: functional
[16] = test system: Mus musculus; experiment: Anticonvulsant activity in Mus musculus (mouse) subcutaneous PTZ-induced seizure assessed as reduced nitrite level per mg of protein at 80 mg/kg, ip administered 30 min before PTZ challenge by Griess reaction; assay type: functional
[17] = test system: Mus musculus; experiment: Anticonvulsant activity in Mus musculus (mouse) assessed as protection against subcutaneous PTZ-induced seizure at 80 mg/kg, ip administered 30 min before PTZ challenge; assay type: functional
[18] = test system: Mus musculus; experiment: Anticonvulsant activity in Mus musculus (mouse) subcutaneous PTZ-induced seizure assessed as carbonyl protein level at 80 mg/kg, ip administered 30 min before PTZ challenge; assay type: functional

In the case of `COc1cc(C2C(Cl)C(=O)N2NC2C(=O)NC(=O)NC2=O)ccc1O` (centres undefined), the Activity [1] is reported as 0.084 µmol, the Activity [2] is reported as 20.48 nmol/mg and the Activity [3] is reported as 0.54 µmol. The Activity [4] was 21.68 nmol/mg, the Activity [5] was 30.68 nmol/mg and the Activity [6] was “Non-toxic”. The mortality [7] was 70%, the Activity [8] was 66% and the Activity [9] was 83%. For the same molecule, the Activity [10] was 0.53 µmol, the Activity [11] was “Toxic” and the Activity [12] was 35.19 nmol/mg. For the same molecule, the Activity [13] was 0.081 µmol.
Work on `CCCC(CCC)C(=O)[O-].[Na+]` [VALPROATE SODIUM] yielded an Activity [14] of 0.089 µmol, an Activity [15] of 28.13 nmol/mg and an Activity [16] of 0.54 µmol. The Activity [17] was 100% and the Activity [18] was 19.06 nmol/mg.
Work on `O=C1NC(=O)C(NN2C(=O)C(Cl)C2c2ccccc2)C(=O)N1` (centres undefined) yielded an Activity [1] of 0.036 µmol, an Activity [2] of 29.61 nmol/mg and an Activity [3] of 0.48 µmol. For the same molecule, the Activity [4] was 30.74 nmol/mg, the Activity [5] was 44.04 nmol/mg and the Activity [6] was “Non-toxic”. For the same molecule, the mortality [7] was 70%, the Activity [8] was 16% and the Activity [9] was 16%. For the same molecule, the Activity [10] was 0.46 µmol, the Activity [11] was “Toxic” and the Activity [12] was 48.36 nmol/mg. The Activity [13] was 0.031 µmol.
For `COc1ccc(C2C(Cl)C(=O)N2NC2C(=O)NC(=O)NC2=O)cc1` (centres undefined), the Activity [1] was 0.047 µmol, the Activity [2] was 25.94 nmol/mg and the Activity [3] was 0.49 µmol. For the same molecule, the Activity [4] was 27.53 nmol/mg, the Activity [5] was 42.91 nmol/mg and the Activity [6] was “Non-toxic”. It also gave a mortality [7] of 70%, an Activity [8] of 33% and an Activity [9] of 66%. For the same molecule, the Activity [10] was 0.47 µmol, the Activity [11] was “Toxic” and the Activity [12] was 47.11 nmol/mg. For the same molecule, the Activity [13] was 0.043 µmol.
